Experiments:
[1] = system: barnyardgrass; test: Test B pre-/postemergence herbicide test; type: in vivo, Echinochloa crus-galli; details: for Barnyardgrass plant response rating: scale 0 (no effect) to 100 (complete control)
How it was run: (§1)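 Species tested were Echinochloa crus-galli, Ipomoea coccinea, Xanthium strumarium and Oryza sativa, treated both before emergence and at the 1- to 4-leaf stage; rice and barnyardgrass were also tested under flooding at 2 leaves. Greenhouse incubation lasted 13–15 days before visual 0–100 scoring.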

[2] = system: wheat; test: Test B postemergence herbicide test; type: in vivo, Triticum aestivum; parameters: key to Wheat plant response rating: 0 = no effect, 100 = complete control
How it was run: (§2)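 Plants grow to 1- to 4-leaf stage (2–18 cm) for postemergence spraying, or to 2-leaf stage for the paddy test. Formulated compound is applied. Greenhouse holding lasts 13–15 days. Response is scored visually relative to controls, 0 no effect to 100 complete control; a dash means no result.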

[3] = system: barnyardgrass; test: Test C flooded paddy test; type: in vivo, Echinochloa crus-galli
Procedure: (§3) At the same time, plants selected from these crop and weed species and also winter barley (Hordeum vulgare L.), blackgrass (Alopecurus myosuroides Huds.), canarygrass (Phalaris minor Retz.), chickweed (Stellaria media (L.) Vill.), downy bromegrass (Bromus tectorum L.), green foxtail (Setaria viridis (L.) Beauv.), Italian ryegrass (Lolium multiflorum Lam.), wheat (Triticum aestivum L.), wild oat (Avenafatua L.) and windgrass (Apera spica-venti (L.) Beauv.) were treated with postemergence applications of some of the test chemicals formulated in the same manner. Plants ranged in height from 2 to 18 cm (1- to 4-leaf stage) for postemergence treatments. Plant species in the flooded paddy test consisted of rice (Oryza sativa), smallflower umbrella sedge (Cyperus difformis L.), ducksalad (Heteranthera limosa (Sw.) Willd.) and barnyardgrass (Echinochloa crus-galli (L.) Beauv.) grown to the 2-leaf stage for testing. Treated plants and controls were maintained in a greenhouse for 12 to 14 days, after which time all species were compared to controls and visually evaluated. Plant response ratings, summarized in Table C, are based on a scale of 0 to 100 where 0 is no effect and 100 is complete control. A dash (-) response means no test result.

[4] = system: cocklebur; test: Test B pre-/postemergence herbicide test; type: in vivo, Xanthium strumarium; details: for Cocklebur plant response rating: scale 0 (no effect) to 100 (complete control)
How it was run: as §1

[5] = system: smallflower umbrella sedge; test: Test C flooded paddy test; type: in vivo, Cyperus difformis
Procedure: as §3

[6] = system: wild oat; test: Test B postemergence herbicide test; type: in vivo, Avena fatua; details: scale 0 (no effect) to 100 (complete control)
How it was run: as §2

[7] = system: Surinam grass; test: Test B pre-/postemergence herbicide test; type: in vivo, Urochloa decumbens; details: for Surinam Grass plant response rating: scale 0 (no effect) to 100 (complete control)
How it was run: (§4)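 Greenhouse pot assay with simultaneous preemergence (treated seed) and postemergence (2–18 cm seedlings) applications of surfactant-containing, non-phytotoxic solvent formulations. Response scored visually 13–15 days later on a 0–100 scale, 100 meaning complete control.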

[8] = system: barnyardgrass; test: Test B flooded paddy test; type: in vivo, Echinochloa crus-galli; details: 1000 g ai/ha, scale 0 to 100 (0 no effect, 100 complete control)
How it was run: as §2

[9] = system: rice; test: Test B flooded paddy test; type: in vivo, Oryza sativa; details: 1000 g ai/ha, scale 0 to 100 (0 no effect, 100 complete control)
How it was run: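 Greenhouse test; postemergence application to plants at 1–4 leaves (2–18 cm); paddy species at 2 leaves; evaluated visually vs controls at 13–15 days; scale 0–100 (100 = complete control).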

[10] = system: large crabgrass; test: Test B pre-/postemergence herbicide test; type: in vivo, Digitaria sanguinalis; details: for Crabgrass, Large plant response rating: scale 0 (no effect) to 100 (complete control)
How it was run: as §4

[11] = system: morningglory; test: Test B pre-/postemergence herbicide test; type: in vivo, Ipomoea coccinea; details: for Morningglory plant response rating: scale 0 (no effect) to 100 (complete control)
How it was run: as §1

[12] = system: small flower umbrella sedge; test: Test B flooded paddy test; type: in vivo, Cyperus difformis; details: 1000 g ai/ha, scale 0 to 100 (0 no effect, 100 complete control)
How it was run: as §2

[13] = system: giant foxtail; test: Test B pre-/postemergence herbicide test; type: in vivo, Setaria faberi; details: for Foxtail, Giant plant response rating: scale 0 (no effect) to 100 (complete control)
How it was run: as §4

[14] = system: corn; test: Test B pre-/postemergence herbicide test; type: in vivo, Zea mays; details: for Corn plant response rating: scale 0 (no effect) to 100 (complete control)
How it was run: as §4

[15] = system: blackgrass; test: Test B postemergence herbicide test; type: in vivo, Alopecurus myosuroides; details: scale 0 (no effect) to 100 (complete control)
How it was run: as §2

[16] = system: ducksalad; test: Test B flooded paddy test; type: in vivo, Heteranthera limosa; details: 1000 g ai/ha, scale 0 to 100 (0 no effect, 100 complete control)
How it was run: as §2

[17] = system: rice; test: Test C flooded paddy test; type: in vivo, Oryza sativa
Procedure: as §3

[18] = system: lambsquarters; test: Test B pre-/postemergence herbicide test; type: in vivo, Chenopodium album; details: for Lambsquarters plant response rating: scale 0 (no effect) to 100 (complete control)
How it was run: as §4

[19] = system: ducksalad; test: Test C flooded paddy test; type: in vivo, Heteranthera limosa
Procedure: as §3

[20] = system: pigweed; test: Test B pre-/postemergence herbicide test; type: in vivo, Amaranthus retroflexus; details: for Pigweed plant response rating: scale 0 (no effect) to 100 (complete control)
How it was run: as §4

[21] = system: velvetleaf; test: Test B pre-/postemergence herbicide test; type: in vivo, Abutilon theophrasti; details: for Velvetleaf plant response rating: scale 0 (no effect) to 100 (complete control)
How it was run: as §4

[22] = 125 g ai/ha, 0 is no effect, 100 is complete control, preemergence
[23] = 125 g ai/ha, visual rating, postemergence
[24] = 125 g ai/ha, scale 0 to 100 (0 no effect, 100 complete control)
[25] = 250 g ai/ha, scale of 0 to 100, 0 is no effect, 100 is complete control
[26] = 500 g ai/ha, visual rating after 12 to 14 days, scale 0 to 100 (0 no effect, 100 complete control)

## CCNC(=O)c1cccc(NC(=O)c2nn(C(C)C)nc2C)c1 [Compound 405]
[1]; [22]
  Plant response rating (0 to 100 scale), Barnyardgrass: 10
[1]; [23]
  Barnyardgrass plant response rating: 10
[1]; Postemergence, 500 g ai/ha
  Barnyardgrass plant response rating: 10
[2]; 125 g ai/ha, visual rating, scale 0 (no effect) to 100 (complete control), postemergence
  Wheat plant response rating: 0
[2]; 500 g ai/ha, scale 0 to 100, 0 no effect, 100 complete control, preemergence
  Wheat plant response rating: 20
[2]; Postemergence, 500 g ai/ha, scale 0 (no effect) to 100 (complete control)
  Wheat plant response rating: 0
[3]; 62 g ai/ha, scale 0 to 100 (0 no effect, 100 complete control)
  Barnyardgrass plant response rating: 0
[3]; [24]
  Barnyardgrass plant response rating: 0
[3]; [25]
  Barnyardgrass plant response rating: 0
[3]; [26]
  Plant response rating, Barnyardgrass: 20
[4]; [22]
  Plant response rating (0 to 100 scale), Cocklebur: 0
[4]; [23]
  Cocklebur plant response rating: 10
[4]; Postemergence, 500 g ai/ha
  Cocklebur plant response rating: 20
[5]; 62 g ai/ha, scale 0 to 100
  Sedge, Umbrella plant response rating: 40
[5]; [24]
  Sedge, Umbrella plant response rating: 50
[5]; [25]
  Sedge, Umbrella plant response rating: 70
[5]; [26]
  Plant response rating, Sedge, Umbrella: 70
[6]; [23]
  Oat, Wild plant response rating: 0
[6]; Postemergence, 500 g ai/ha
  Oat, Wild plant response rating: 10
[7]; [22]
  Plant response rating (0 to 100 scale), Surinam Grass: 0
[7]; [23]
  Surinam Grass plant response rating: 0
[7]; Postemergence, 500 g ai/ha
  Surinam Grass plant response rating: 10
[8]
  Barnyardgrass plant response rating: 40
[9]
  Rice plant response rating: 50
[10]; [22]
  Plant response rating (0 to 100 scale), Crabgrass, Large: 30
[10]; [23]
  Crabgrass, Large plant response rating: 10
[10]; Postemergence, 500 g ai/ha
  Crabgrass, Large plant response rating: 20
[11]; [22]
  Plant response rating (0 to 100 scale), Morningglory: 30
[11]; [23]
  Morningglory plant response rating: 20
[11]; Postemergence, 500 g ai/ha
  Morningglory plant response rating: 60
[12]
  Sedge, Umbrella plant response rating: 90
[13]; [22]
  Plant response rating (0 to 100 scale), Foxtail, Giant: 0
[13]; [23]
  Foxtail, Giant plant response rating: 0
[13]; Postemergence, 500 g ai/ha
  Foxtail, Giant plant response rating: 20
[14]; [22]
  Plant response rating (0 to 100 scale), Corn: 0
[14]; [23]
  Corn plant response rating: 10
[14]; Postemergence, 500 g ai/ha
  Corn plant response rating: 10
[15]; [23]
  Blackgrass plant response rating: 0
[15]; Postemergence, 500 g ai/ha
  Blackgrass plant response rating: 10
[16]
  Ducksalad plant response rating: 80
[17]; 62 g ai/ha, scale 0 to 100
  Rice plant response rating: 0
[17]; [24]
  Rice plant response rating: 0
[17]; [25]
  Rice plant response rating: 0
[17]; [26]
  Plant response rating, Rice: 20
[18]; [22]
  Plant response rating (0 to 100 scale), Lambsquarters: 70
[18]; [23]
  Lambsquarters plant response rating: 50
[18]; Postemergence, 500 g ai/ha
  Lambsquarters plant response rating: 70
[19]; 62 g ai/ha, scale 0 to 100
  Ducksalad plant response rating: 0
[19]; [24]
  Ducksalad plant response rating: 0
[19]; [25]
  Ducksalad plant response rating: 20
[19]; [26]
  Plant response rating, Ducksalad: 30
[20]; [22]
  Plant response rating (0 to 100 scale), Pigweed: 10
[20]; [23]
  Pigweed plant response rating: 30
[20]; Postemergence, 500 g ai/ha
  Pigweed plant response rating: 50
[21]; [22]
  Plant response rating (0 to 100 scale), Velvetleaf: 0
[21]; [23]
  Velvetleaf plant response rating: 10
[21]; Postemergence, 500 g ai/ha
  Velvetleaf plant response rating: 30

Reference: US20060069132A1, “Azolecarboxamide herbicides” (priority 2004, published 2006)
